For orientation: MIC means the smallest concentration in the dilution series that meets the test's criterion for growth inhibition. What is called pIC50 is the negative decadic logarithm of the IC50, by convention in mol/L.

Here are results for one compound from PMC13183915, “A platinum butterfly effect: small changes turn an anticancer drug into a non-toxic metalloantibiotic with in vivo efficacy” (npj Antimicrobials and Resistance, 2026).

Experiment [1] deals with Bacillus subtilis MW168. The experiment is described as follows: MIC assay, B. subtilis MW168. In kind it is cell-based. The settings on record: B. subtilis MW168.
Experiment [2] has as its system E. coli (NCTC 13476). Description: MIC, E. coli NCTC 13476 (with or without PMBN). Format: cell-based. As to conditions: E. coli NCTC 13476 + 10 µg/mL PMBN (polymyxin B nonapeptide).
Experiment [3] deals with MSSA ATCC 29213. The experiment is described as follows: Broth microdilution MIC, MSSA ATCC 29213. In kind it is cell-based, S. aureus. How it is done:
(§1) The data is given in supporting information (Table S5). Before starting the experiment, a single colony was picked from MHA plate, inoculated in MHBII and incubated overnight at 37 °C with shaking for 18–24 h to get the starter culture. Antibiotic susceptibility testing was conducted according to the CLSI (Clinical & Laboratory Standards Institute) guidelines using the broth microdilution assay. 10 mg/mL stock solutions of test compounds were prepared in DMSO. Bacterial cultures were inoculated in MHBII and optical density (OD) was measured at 600 nm, followed by dilution to achieve ~10^6 CFU/mL. The compounds were tested from 64 to 0.5 mg/L in two-fold serial diluted fashion with 2.5 μL of each concentration added to well of a 96-well round bottom microtiter plate. Later, 97.5 μL of bacterial suspension was added to each well containing either test compound or appropriate controls. […] The MIC is defined as the lowest concentration of the compound at which there is absence of visible growth. For each test compound, MIC determinations were carried out independently three times using duplicate samples.
For orientation: Broth dilution looks for growth in wells or tubes with falling amounts of substance.

For experiment [4], the system named is MRSA NRS 100. Description: Broth microdilution MIC, MRSA NRS 100. Format: cell-based, S. aureus. The settings on record: MRSA NRS 100. How it is done: as §1
Experiment [5] concerns MRSA NRS 193. Description: Broth microdilution MIC, MRSA NRS 193. Format: cell-based, S. aureus. As to conditions: MRSA NRS 193. On the procedure: as §1
Experiment [6] relates to MRSA NRS 198. The experiment is described as follows: Broth microdilution MIC, MRSA NRS 198. In kind it is cell-based, S. aureus. As to conditions: MRSA NRS 198. On the procedure: as §1
For experiment [7], the system named is VRSA VRS 4. The experiment is described as follows: Broth microdilution MIC, VRSA VRS 4. As to conditions: VRSA VRS 4. Format: cell-based, S. aureus. How it is done: as §1
Experiment [8] concerns K. pneumoniae BAA 1705. Description: Broth microdilution MIC, K. pneumoniae BAA 1705. Format: cell-based, Klebsiella pneumoniae. On the procedure: as §1
Experiment [9] concerns Vero cells. The experiment is described as follows: Cytotoxicity against Vero cells (MTT assay). The settings on record: 72 h. Format: cell-based, African Green Monkey. How it is done: Cell toxicity was performed against Vero cells using the MTT assay. ~10^3 cells/well were seeded in 96 well plate and incubated at 37 °C with 5% CO2 atmosphere. […] After the incubation was over, MTT was added in each well, incubated at 37 °C for further 4 h, residual medium was discarded, 0.1 mL of DMSO was added to solubilize the formazan crystals and OD540 was taken for the calculation of IC50. Doxorubicin was used as positive control and each experiment was repeated in triplicate.

Experiment [10] concerns RecA-GFP (B. subtilis UG10). The experiment is described as follows: Localization of RecA-GFP (DNA damage reporter). The settings on record: Pt1 3.125 µM, Pt8 25 µM, CisPt 100 µM; strongest after 10 min. In kind it is cell-based, Bacillus subtilis. On the procedure:
To confirm whether the compounds induce DNA damage in bacterial cells, the localization of RecA was assessed. RecA is part of the bacterial SOS response to DNA damage. It is a DNA-associated protein that recognizes single-stranded DNA, which occurs as a consequence of strand breaks. If strand breaks are present, RecA accumulates at the damaged sites, appearing as foci or elongated structures. Since the RecA response is strongest shortly after stress induction, we additionally examined a 10 min timepoint in this assay.
B. subtilis strains were grown in LB containing appropriate inducer concentrations as specified in Table S10. After reaching an OD600 of 0.3, cultures were split and treated with antibiotics. Samples were withdrawn after 30 and 60 min of treatment, spotted on glass slides covered with 1% agarose films, and immediately imaged.

Experiment [11] concerns λ-phage DNA. The experiment is described as follows: Single-molecule imaging of YOYO-1-labeled λ-DNA, DNA length analysis. In kind it is biochemical.
Experiment [12] relates to B. subtilis 168CA. The experiment is described as follows: ROS scavenger assay (modified MIC assay). Format: cell-based, Bacillus subtilis. On the procedure: LB media were prepared to contain either 10 mM tiron, 150 mM thiourea, 10 mM tiron and 150 mM thiourea, or no […]. Serial two-fold dilutions of the different antibiotics were prepared in the respective media and transferred to 96-well plates. […] The OD600 was meassured in a BMG Clariostar Plus plate reader.

Experiment [13] deals with S. aureus ATCC 29213. The experiment is described as follows: Murine superficial skin infection model. In kind it is in vivo. The settings on record: topical 2% cream, twice daily for 4 days, Swiss mice. How it is done: The in vivo efficacy of Pt1 was determined in a superficial skin infection model. Briefly, male Swiss mice, 4–6 weeks old, weighing ∼22–25 g, were used throughout the study. Mice were caged alone in an individually vented cage (IVC) to check cross-contamination and to maintain aseptic conditions throughout the experiment. Ketamine and xylazine were prepared in distilled water, 40 mg/kg and 8 mg/kg of body weight, respectively, and injected intraperitoneally (IP) as a mixture of 100 μL in each mouse for anaesthesia. Then, we proceeded with the removal of fur by applying depilatory cream. The area was cleaned with sterile distilled water. Approximately 2 cm^2 of skin area was scratched until it became visibly reddened and glistening without any bleeding. For bacterial infection, a 10 μL droplet containing 10^7 CFU/mL of S. aureus ATCC 29213 was applied to the reddened area of skin. To confirm the infection, post 4 h, untreated mice were sacrificed, skin homogenized, and various dilutions of the treatment groups (6 mice per group) were plated on TSA plates. […] Henceforth, the drug regimen was comprised of twice daily application (in the morning and the evening, with an 8 h interval) for 4 days. Control mice were regularly treated with 25–30 mg each of 2% fusidic acid (LEO Pharma, Ballerup, Denmark), 2% infuzide, and base (vehicle). […]

In experiment [14] the test system is E. coli tolC. The arrangement: method as in PMID 34018686. The settings on record: efflux-impaired mutant; cited from earlier work.

pIC50: −log10 of the molar value. Several values for one entry are separate records, joined by “and”; a condition that tells them apart may be missing. Equal entries are not always repeated.

On to `C1=C\CC/C=C\CC/1.[Cl][Pt][Cl]` [Pt1], for which the minimum inhibitory concentration (MIC) in [1] is 6.25 µM; in experiment [2] it was more than 100 µM; in experiment [3] (MSSA ATCC 29213) it was 0.67 µM; in [3] (MSSA ATCC 29213, Table S5), 0.25 µg/mL; in experiment [3] (S.aureus ATCC 29213 (unpassaged), Table S9), 0.0625 µg/mL; in experiment [4], 0.67 to 1.34 µM. The minimal inhibitory concentration (MIC) in experiment [5] is 0.25 µg/mL and 0.67 µM; in experiment [6], 0.25 µg/mL and 0.67 µM; in experiment [7], 0.67 to 1.34 µM; in experiment [8], more than 64 µg/mL. Besides, in experiment [9], the negative-log IC50 (pIC50) is less than 3.87. In addition, in experiment [10], the “RecA accumulation on nucleoids” value is “clear RecA accumulations”. Moreover, the “DNA molecule length shift” value in [11] (3.125 µM Pt1, 25 µM Pt8, 100 µM CisPt, 10 min) was “shorter fragments”. Besides, in experiment [11] (25 µM Pt1, 3.125 µM Pt8), the “DNA fragmentation at swapped (equimolar comparison) concentrations” value is reported as “stronger DNA fragmentation”. In addition, the “MIC fold change (increase) with scavenger” value in experiment [12] (medium containing 150 mM thiourea (hydroxyl radical scavenger)) is listed as “tenfold”. Also, the “MIC fold change (increase) with scavengers” value in experiment [12] (medium containing both tiron and thiourea) stood at 13 fold. In addition, the “reduction in bacterial load compared to vehicle-treated group” value in experiment [13] is on record as ~ 1.9 log10 CFU/g. For the same compound, the antibacterial activity result in experiment [14] was “inactive”.
